The values below come from the NIST ThermoML archive (doi:10.1021/acs.jced.9b00068).

Numbers after ± are expanded uncertainties.

For data set [1] the following is noted: Liquid; for mass density: 298.15 K, 101.33 kPa, Vibrating tube method; for vapor or sublimation pressure: Ebulliometric method (Recirculating still).
Data set [2] can be described thus: refractive index (Na D-line) (dimensionless). The following applies: 298.15 K; 101.33 kPa; Liquid; Standard Abbe refractometry.

Broadly, the mass density is the mass of a sample divided by its volume. As usually defined, the vapor or sublimation pressure is the equilibrium pressure above the liquid or solid. Broadly, the refractive index is the speed of light in vacuum divided by its phase velocity in the sample.

In the case of `CCCOC(C)=O` [propyl ethanoate], in data set [1], the mass density is listed as 882.9 ± 0.2 kg/m3. In addition, in data set [1] (373.8 K), the “vapor or sublimation pressure” value worked out at 100.17 ± 2 kPa. The refractive index in data set [2] is 1.3815 ± 0.0004.

Take `COC(=O)OC` [dimethyl carbonate]: the mass density in data set [1] came to 1062.7 ± 0.2 kg/m3. Besides, in data set [1] (362.5 K), the “vapor or sublimation pressure” value came out at 100.17 ± 2 kPa. The refractive index in data set [2] was 1.3664 ± 0.0004.

As to `COC(C)=O` [methyl ethanoate], in data set [1], the mass density came out at 927.4 ± 0.2 kg/m3. For the same molecule, the “vapor or sublimation pressure” value in data set [1] (330.2 K) worked out at 100.17 ± 2 kPa. Further, the refractive index in data set [2] is reported as 1.3587 ± 0.0004.

Take `CO` [methanol]: in data set [1], the mass density was 787.7 ± 0.2 kg/m3. Also, the “vapor or sublimation pressure” value in data set [1] (337.5 K) was determined as 100.17 ± 2 kPa. For the same molecule, the refractive index in data set [2] stood at 1.3275 ± 0.0004.

On to `CCOC(=O)OCC` [diethyl carbonate], for which the mass density in data set [1] is 969.4 ± 0.2 kg/m3. Also, the “vapor or sublimation pressure” value in data set [1] (399.6 K) stood at 100.17 ± 2 kPa. Moreover, the refractive index in data set [2] is on record as 1.3821 ± 0.0004.

Consider `CCCCCOC(C)=O` [pentyl ethanoate], for which the mass density in data set [1] is on record as 872.3 ± 0.2 kg/m3. Further, the “vapor or sublimation pressure” value in data set [1] (421.6 K) is recorded as 100.17 ± 2 kPa. Further, the refractive index in data set [2] stood at 1.3999 ± 0.0004.
